The text below walks through data of US4024276A, “Xanthone-2-carboxylic acid compounds” (Roussel-UCLAF, priority 1974, dated 1977).

One test has as its system cutaneous anaphylaxis. As to the kind of experiment: Passive cutaneous anaphylaxis in rats (method of Ovary), anti-allergic activity. In kind it is in vivo, rat. The note with it: Rattus norvegicus; male rats 180-220 g; intravenous, followed immediately by antigen/Evans blue challenge; anti-ovalbumin antiserum ID 3 days before; compounds used as tris(hydroxymethyl)methylamine salts; read-out: ED50 (dose of drug giving 50% inhibition). Here is the method: Evans blue dye was injected with the antigen to act as a marker to assess the severity of the local response which is inhibited by anti-allergic compounds. Groups of 7 male rats weighing 180 to 220 g were used in this test.
Preparation of antigen for sensitization (such as alum precipitated ovalbumin) was effected by washing 120 grams of Al(OH)3 gel in 140 mls of saline solution (use of a macerator facilitates mixing). Then, the product was centrifuged at 3,000 r.p.m. for about 10 minutes and the precipitate was responded with 300 mls of albumin egg powder (1.3 mg/ml) in saline solution and allowed to stand for 30 minutes. Then, the mixture was centrifuged at 3,000 r.p.m. for 10 minutes and the wet precipitate was weighed and to each gram weight 1 ml of saline solution was added. The antigen was stored in the refrigerator and was a quantity sufficient for 60 rats for a 3 day sensitization program.
Preparation of antiserum (such as anti-ovalbumin) was effected by injecting 1 ml of the alum precipitated ovalbumin subcutaneously into the rats on days 0, 2 and 4. The rats were bled on day 14 either by cardiac puncture or via the dorsal abdominal aorta and equal quantities of serum from each animal were pooled and thoroughly mixed. 2 ml aliquots were stored at -20° C in plastic tubes.
For sensitization, rats were anaesthetized with Nembutal (40-60 mg/kg i.p.) and were then sensitized by four ID injections (0.1 ml each) on their shaved backs. The animals were then left for a period of three days to develop sensitization.
For the challenge, the sensitized rats were anaesthetized and challenged intravenously via the superficial penile vein with the anti-allergic compound, followed immediately by 1 ml of an antigen/Evans blue mixture (1 mg albumin egg powder in 0.5 ml saline solution plus 0.5 ml of 1% Evans blue). The injections were speeded up by using an automatic 1 ml self filling glass syringe. The "challenged" rats were killed after 30 minutes and their skin on the dorsal surface was removed. The degree and area of blueing, proportional to the anaphylactic reaction, was assessed on a four point scoring system as follows:
1. Total scores for sites, 1, 2, 3 and 4 = X
2. Mean value of X for each group = X
3. X t = X for test group X c = X for control group [formula]
In general, ED50 refers to the dose that gives a 50% effect, or the effect in half of the subjects. `CC(=O)N=S(C)(=O)c1ccc2oc3ccc(C(=O)O)cc3c(=O)c2c1` (stereo not shown) [7-(N-acetyl-S-methylsulfonimidoyl)-xanthone-2-carboxylic acid]: the ED50 was found to be 0.065 mg/kg.

Consider `CS(=O)(=NC(=O)c1ccccc1)c1ccc2oc3ccc(C(=O)O)cc3c(=O)c2c1` (stereo not shown) [7-(N-benzoyl-S-methylsulfonimidoyl)-xanthone-2-carboxylic acid], for which the ED50 was found to be 0.68 mg/kg. The same measure, in the same setting: the same measure for `CCCCCCc1cc(S(C)(=O)=NC(N)=O)cc2c(=O)c3cc(C(=O)O)ccc3oc12` (stereo not shown) [7-(N-carbamoyl-S-methylsulfonimidoyl)-5-(n-hexyl)-xanthone-2-carboxylic acid]: 0.008 mg/kg; for `CCCCCCc1cc(S(C)(=N)=O)cc2c(=O)c3cc(C(=O)O)ccc3oc12` (stereo not shown) [7-(S-methylsulfonimidoyl)-5-(n-hexyl)-xanthone-2-carboxylic acid]: 0.0028 mg/kg; for `CCCCCOc1cc(S(C)(=N)=O)cc2c(=O)c3cc(C(=O)O)ccc3oc12` (stereo not shown) [7-(S-methylsulfonimidoyl)-5-(n-pentyloxy)-xanthone-2-carboxylic acid]: 0.0035 mg/kg. The same measure, in the same setting: next, `Cc1ccc(S(=O)(=O)N=S(C)c2ccc3oc4ccc(C(=O)O)cc4c(=O)c3c2)cc1` (stereo not shown) [7-[N-(p-toluenesulfonyl)-S-methylsulfimidoyl]-xanthone-2-carboxylic acid]: 0.43 mg/kg.

The test is the same for the next values; noted with them: male rats 180-220 g; intravenous, followed immediately by antigen/Evans blue challenge; anti-ovalbumin antiserum ID 3 days before; compounds used as tris(hydroxymethyl)methylamine salts.
Turning to `CS(=N)(=O)c1ccc2oc3ccc(C(=O)O)cc3c(=O)c2c1` (stereo not shown) [7-(S-methylsulfonimidoyl)-xanthone-2-carboxylic acid], the “ED50 (dose of drug giving 50% inhibition)” value is on record as 0.033 mg/kg.
